From patent publication US20110039721A1, “METHOD FOR PREDICTION ABOUT CARCINOGENICITY OF SUBSTANCE IN RODENT” (Chemicals Evaluation and Research Institute, priority 2007, published 2011)

Key:
[1] = test system: mRNA expressed from the genes (A) to (D) in rat liver; experiment: Behavior of genes (mRNA expression level, oligo-DNA microarray) in rat liver after 28-day oral administration; type: in vivo; details: for Behavior of gene caused by administration of chemical substance, Gene No. 4846 / Behavior of gene caused by administration of chemical substance, Gene No. 2026 / Behavior of gene caused by administration of chemical substance, Gene No. 4218 / Behavior of gene caused by administration of chemical substance, Gene No. 6182 / Behavior of gene caused by administration of chemical substance, Gene No. 5600: gene group (A); for Behavior of gene caused by administration of chemical substance, Gene No. 4846: Unigene No. Rn.144554; for Behavior of gene caused by administration of chemical substance, Gene No. 2026 / Behavior of gene caused by administration of chemical substance, Gene No. 4218: Unigene No. Rn.167075; for Behavior of gene caused by administration of chemical substance, Gene No. 6182: Unigene No. Rn.5834; for Behavior of gene caused by administration of chemical substance, Gene No. 5600: Unigene No. Rn.9836; for Behavior of gene caused by administration of chemical substance, Gene No. 1494 / Behavior of gene caused by administration of chemical substance, Gene No. 2045 / Behavior of gene caused by administration of chemical substance, Gene No. 2203: gene group (B); for Behavior of gene caused by administration of chemical substance, Gene No. 1494: Unigene No. Rn.1430; for Behavior of gene caused by administration of chemical substance, Gene No. 2045: Unigene No. Rn.19329; for Behavior of gene caused by administration of chemical substance, Gene No. 2203: Unigene No. Rn.21240; for Behavior of gene caused by administration of chemical substance, Gene No. 533 / Behavior of gene caused by administration of chemical substance, Gene No. 725 / Behavior of gene caused by administration of chemical substance, Gene No. 1163 / Behavior of gene caused by administration of chemical substance, Gene No. 4973 / Behavior of gene caused by administration of chemical substance, Gene No. 4095 / Behavior of gene caused by administration of chemical substance, Gene No. 1334 / Behavior of gene caused by administration of chemical substance, Gene No. 6620 / Behavior of gene caused by administration of chemical substance, Gene No. 6303 / Behavior of gene caused by administration of chemical substance, Gene No. 5878 / Behavior of gene caused by administration of chemical substance, Gene No. 1131 / Behavior of gene caused by administration of chemical substance, Gene No. 1562 / Behavior of gene caused by administration of chemical substance, Gene No. 1741 / Behavior of gene caused by administration of chemical substance, Gene No. 893 / Behavior of gene caused by administration of chemical substance, Gene No. 6026 / Behavior of gene caused by administration of chemical substance, Gene No. 154 / Behavior of gene caused by administration of chemical substance, Gene No. 1993 / Behavior of gene caused by administration of chemical substance, Gene No. 813 / Behavior of gene caused by administration of chemical substance, Gene No. 2494 / Behavior of gene caused by administration of chemical substance, Gene No. 2546 / Behavior of gene caused by administration of chemical substance, Gene No. 3776 / Behavior of gene caused by administration of chemical substance, Gene No. 3929 / Behavior of gene caused by administration of chemical substance, Gene No. 1119 / Behavior of gene caused by administration of chemical substance, Gene No. 6742 / Behavior of gene caused by administration of chemical substance, Gene No. 5634: gene group (C); for Behavior of gene caused by administration of chemical substance, Gene No. 533: Unigene No. Rn.106184; for Behavior of gene caused by administration of chemical substance, Gene No. 725: Unigene No. Rn.108075; for Behavior of gene caused by administration of chemical substance, Gene No. 1163: Unigene No. Rn.11766; for Behavior of gene caused by administration of chemical substance, Gene No. 4973: Unigene No. Rn.118529; for Behavior of gene caused by administration of chemical substance, Gene No. 4095: Unigene No. Rn.119024; for Behavior of gene caused by administration of chemical substance, Gene No. 1334 / Behavior of gene caused by administration of chemical substance, Gene No. 6620: Unigene No. Rn.120914; for Behavior of gene caused by administration of chemical substance, Gene No. 6303: Unigene No. Rn.123063; for Behavior of gene caused by administration of chemical substance, Gene No. 5878: Unigene No. Rn.143213; for Behavior of gene caused by administration of chemical substance, Gene No. 1131: Unigene No. Rn.144946; for Behavior of gene caused by administration of chemical substance, Gene No. 1562: Unigene No. Rn.14744; for Behavior of gene caused by administration of chemical substance, Gene No. 1741: Unigene No. Rn.1647; for Behavior of gene caused by administration of chemical substance, Gene No. 893: Unigene No. Rn.164817; for Behavior of gene caused by administration of chemical substance, Gene No. 6026: Unigene No. Rn.167685; for Behavior of gene caused by administration of chemical substance, Gene No. 154: Unigene No. Rn.185941; for Behavior of gene caused by administration of chemical substance, Gene No. 1993: Unigene No. Rn.18728; for Behavior of gene caused by administration of chemical substance, Gene No. 813: Unigene No. Rn.201760; for Behavior of gene caused by administration of chemical substance, Gene No. 2494: Unigene No. Rn.23969; for Behavior of gene caused by administration of chemical substance, Gene No. 2546: Unigene No. Rn.24561; for Behavior of gene caused by administration of chemical substance, Gene No. 3776: Unigene No. Rn.43232; for Behavior of gene caused by administration of chemical substance, Gene No. 3929: Unigene No. Rn.4620; for Behavior of gene caused by administration of chemical substance, Gene No. 1119: Unigene No. Rn.9757; for Behavior of gene caused by administration of chemical substance, Gene No. 6742: Unigene No. Rn.9779; for Behavior of gene caused by administration of chemical substance, Gene No. 5634: Unigene No. Rn.9862; for Behavior of gene caused by administration of chemical substance, Gene No. 5726: gene group (D), Unigene No. Rn.9939
Outline: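 Rat liver RNA after 28 days of daily gavage dosing (male F344, 5 weeks old, four per group). A change reaching 1.5-fold, or 1/1.5, against solvent control scores as significant; opposite direction versus another carcinogen scores as not significant.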

liver = details: classification of the substance (Cr+/Cr−); cited from earlier work
rodent = details: classification of the substance (C+/C−); cited from earlier work
[2] = classification of the substance (M+/M−); cited from earlier work

Compound: ClC(Cl)(Cl)Cl [TS003, Carbon tetrachloride]
- Behavior of gene caused by administration of chemical substance, Gene No. 4846 [1]: +
- Behavior of gene caused by administration of chemical substance, Gene No. 2026 [1]: +
- Behavior of gene caused by administration of chemical substance, Gene No. 4218 [1]: +
- Behavior of gene caused by administration of chemical substance, Gene No. 6182 [1]: +
- Behavior of gene caused by administration of chemical substance, Gene No. 5600 [1]: +
- Behavior of gene caused by administration of chemical substance, Gene No. 1494 [1]: +
- Behavior of gene caused by administration of chemical substance, Gene No. 2045 [1]: +
- Behavior of gene caused by administration of chemical substance, Gene No. 2203 [1]: +
- Behavior of gene caused by administration of chemical substance, Gene No. 533 [1]: +
- Behavior of gene caused by administration of chemical substance, Gene No. 725 [1]: −
- Behavior of gene caused by administration of chemical substance, Gene No. 1163 [1]: +
- Behavior of gene caused by administration of chemical substance, Gene No. 4973 [1]: +
- Behavior of gene caused by administration of chemical substance, Gene No. 4095 [1]: −
- Behavior of gene caused by administration of chemical substance, Gene No. 1334 [1]: −
- Behavior of gene caused by administration of chemical substance, Gene No. 6620 [1]: −
- Behavior of gene caused by administration of chemical substance, Gene No. 6303 [1]: −
- Behavior of gene caused by administration of chemical substance, Gene No. 5878 [1]: −
- Behavior of gene caused by administration of chemical substance, Gene No. 1131 [1]: −
- Behavior of gene caused by administration of chemical substance, Gene No. 1562 [1]: −
- Behavior of gene caused by administration of chemical substance, Gene No. 1741 [1]: +
- Behavior of gene caused by administration of chemical substance, Gene No. 893 [1]: −
- Behavior of gene caused by administration of chemical substance, Gene No. 6026 [1]: −
- Behavior of gene caused by administration of chemical substance, Gene No. 154 [1]: +
- Behavior of gene caused by administration of chemical substance, Gene No. 1993 [1]: −
- Behavior of gene caused by administration of chemical substance, Gene No. 813 [1]: −
- Behavior of gene caused by administration of chemical substance, Gene No. 2494 [1]: −
- Behavior of gene caused by administration of chemical substance, Gene No. 2546 [1]: −
- Behavior of gene caused by administration of chemical substance, Gene No. 3776 [1]: −
- Behavior of gene caused by administration of chemical substance, Gene No. 3929 [1]: −
- Behavior of gene caused by administration of chemical substance, Gene No. 1119 [1]: −
- Behavior of gene caused by administration of chemical substance, Gene No. 6742 [1]: −
- Behavior of gene caused by administration of chemical substance, Gene No. 5634 [1]: −
- Behavior of gene caused by administration of chemical substance, Gene No. 5726 [1]: −
- Liver carcinogenicity (liver): Cr+
- Carcinogenicity (rodent): C+
- Mutagenicity by Ames test [2]: M−

Compound: ClC=C(Cl)Cl [TS022, Trichloroethylene]
- Behavior of gene caused by administration of chemical substance, Gene No. 4846 ([1]; mRNA vs vehicle control group): +
- Behavior of gene caused by administration of chemical substance, Gene No. 2026 ([1]; mRNA vs vehicle control group): −
- Behavior of gene caused by administration of chemical substance, Gene No. 4218 ([1]; mRNA vs vehicle control group): −
- Behavior of gene caused by administration of chemical substance, Gene No. 6182 ([1]; mRNA vs vehicle control group): +
- Behavior of gene caused by administration of chemical substance, Gene No. 5600 ([1]; mRNA vs vehicle control group): −
- Behavior of gene caused by administration of chemical substance, Gene No. 1494 ([1]; mRNA vs vehicle control group): +
- Behavior of gene caused by administration of chemical substance, Gene No. 2045 ([1]; mRNA vs vehicle control group): +
- Behavior of gene caused by administration of chemical substance, Gene No. 2203 ([1]; mRNA vs vehicle control group): +
- Behavior of gene caused by administration of chemical substance, Gene No. 533 ([1]; mRNA vs vehicle control group): −
- Behavior of gene caused by administration of chemical substance, Gene No. 725 ([1]; mRNA vs vehicle control group): −
- Behavior of gene caused by administration of chemical substance, Gene No. 1163 ([1]; mRNA vs vehicle control group): −
- Behavior of gene caused by administration of chemical substance, Gene No. 4973 ([1]; mRNA vs vehicle control group): −
- Behavior of gene caused by administration of chemical substance, Gene No. 4095 ([1]; mRNA vs vehicle control group): −
- Behavior of gene caused by administration of chemical substance, Gene No. 1334 ([1]; mRNA vs vehicle control group): −
- Behavior of gene caused by administration of chemical substance, Gene No. 6620 ([1]; mRNA vs vehicle control group): −
- Behavior of gene caused by administration of chemical substance, Gene No. 6303 ([1]; mRNA vs vehicle control group): −
- Behavior of gene caused by administration of chemical substance, Gene No. 5878 ([1]; mRNA vs vehicle control group): −
- Behavior of gene caused by administration of chemical substance, Gene No. 1131 ([1]; mRNA vs vehicle control group): −
- Behavior of gene caused by administration of chemical substance, Gene No. 1562 ([1]; mRNA vs vehicle control group): −
- Behavior of gene caused by administration of chemical substance, Gene No. 1741 ([1]; mRNA vs vehicle control group): −
- Behavior of gene caused by administration of chemical substance, Gene No. 893 ([1]; mRNA vs vehicle control group): −
- Behavior of gene caused by administration of chemical substance, Gene No. 6026 ([1]; mRNA vs vehicle control group): −
- Behavior of gene caused by administration of chemical substance, Gene No. 154 ([1]; mRNA vs vehicle control group): −
- Behavior of gene caused by administration of chemical substance, Gene No. 1993 ([1]; mRNA vs vehicle control group): −
- Behavior of gene caused by administration of chemical substance, Gene No. 813 ([1]; mRNA vs vehicle control group): −
- Behavior of gene caused by administration of chemical substance, Gene No. 2494 ([1]; mRNA vs vehicle control group): −
- Behavior of gene caused by administration of chemical substance, Gene No. 2546 ([1]; mRNA vs vehicle control group): −
- Behavior of gene caused by administration of chemical substance, Gene No. 3776 ([1]; mRNA vs vehicle control group): −
- Behavior of gene caused by administration of chemical substance, Gene No. 3929 ([1]; mRNA vs vehicle control group): −
- Behavior of gene caused by administration of chemical substance, Gene No. 1119 ([1]; mRNA vs vehicle control group): −
- Behavior of gene caused by administration of chemical substance, Gene No. 6742 ([1]; mRNA vs vehicle control group): +
- Behavior of gene caused by administration of chemical substance, Gene No. 5634 ([1]; mRNA vs vehicle control group): −
- Behavior of gene caused by administration of chemical substance, Gene No. 5726 ([1]; mRNA vs vehicle control group): −
- Liver carcinogenicity (liver): Cr−
- Carcinogenicity (rodent): C+
- Mutagenicity by Ames test [2]: M−
